From the NIST ThermoML archive (doi:10.1016/j.jct.2014.10.001)
“And” between values parts separate entries of the source, which are not always exact repeats. Equal entries are not always repeated.

Test: xn = mol fraction of the nth substance listed
Settings: Gas, Buoyancy - hydrostatic balance with magnetic suspension - one sinker

FCC(F)(F)F [1,1,1,2-tetrafluoroethane] + CCC
Settings	mass density
258.14 K, 113.78 kPa, x1 = 0.5401	4.1262 kg/m3
258.14 K, 154.11 kPa, x1 = 0.5401	5.651 kg/m3
258.15 K, 190.72 kPa, x1 = 0.5401	7.0674 kg/m3
258.15 K, 242.95 kPa, x1 = 0.5401	9.1445 kg/m3
258.16 K, 154.01 kPa, x1 = 0.7989	6.8087 kg/m3
258.16 K, 168.96 kPa, x1 = 0.2391	4.7661 kg/m3
258.17 K, 103.24 kPa, x1 = 0.2391	2.8628 kg/m3
258.17 K, 106.9 kPa, x1 = 0.7989	4.6538 kg/m3
258.18 K, 197.88 kPa, x1 = 0.7989	8.8817 kg/m3
258.19 K, 252.34 kPa, x1 = 0.2391	7.2822 kg/m3
263.13 K, 101.57 kPa, x1 = 0.5401	3.5945 kg/m3
263.13 K, 101.58 kPa, x1 = 0.5401	3.5946 kg/m3
263.14 K, 134.16 kPa, x1 = 0.6201	5.0876 kg/m3
263.14 K, 166.53 kPa, x1 = 0.5401	5.9917 kg/m3
263.14 K, 183.78 kPa, x1 = 0.7989	8.0203 kg/m3
263.14 K, 220.07 kPa, x1 = 0.5401	8.0347 kg/m3
263.14 K, 225.37 kPa, x1 = 0.7989	9.9705 kg/m3
263.14 K, 281.67 kPa, x1 = 0.5401	10.4652 kg/m3
263.15 K, 99.9 kPa, x1 = 0.7989	4.2498 kg/m3
263.15 K, 102.04 kPa, x1 = 0.2391	2.7715 kg/m3
263.15 K, 145.63 kPa, x1 = 0.7989	6.2807 kg/m3
263.15 K, 194.24 kPa, x1 = 0.6201	7.4918 kg/m3
263.15 K, 259.7 kPa, x1 = 0.6201	10.2107 kg/m3
263.16 K, 203.74 kPa, x1 = 0.2391	5.6732 kg/m3
263.17 K, 305.05 kPa, x1 = 0.2391	8.7279 kg/m3
268.12 K, 231.64 kPa, x1 = 0.7989	10.0266 kg/m3
268.13 K, 104.95 kPa, x1 = 0.7989	4.3792 kg/m3
268.13 K, 150.69 kPa, x1 = 0.7989	6.3684 kg/m3
268.13 K, 213.45 kPa, x1 = 0.6201	8.092 kg/m3
268.14 K, 104.92 kPa, x1 = 0.5401	3.6381 kg/m3
268.14 K, 125.37 kPa, x1 = 0.6201	4.6466 kg/m3
268.14 K, 190.18 kPa, x1 = 0.7989	8.1303 kg/m3
268.14 K, 285.39 kPa, x1 = 0.7989	12.5661 kg/m3
268.14 K, 300.29 kPa, x1 = 0.6201	11.6624 kg/m3
268.15 K, 183.8 kPa, x1 = 0.5401	6.4973 kg/m3
268.15 K, 268.92 kPa, x1 = 0.5401	9.7174 kg/m3
268.16 K, 198.02 kPa, x1 = 0.2391	5.3921 kg/m3
268.16 K, 341.03 kPa, x1 = 0.5401	12.5709 kg/m3
268.17 K, 119.34 kPa, x1 = 0.2391	3.1919 kg/m3
268.17 K, 286.65 kPa, x1 = 0.2391	7.9728 kg/m3
268.17 K, 365.93 kPa, x1 = 0.2391	10.3898 kg/m3
273.1 K, 170.36 kPa, x1 = 0.5401	5.8806 kg/m3
273.1 K, 283.04 kPa, x1 = 0.6201	10.6873 kg/m3
273.1 K, 358.16 kPa, x1 = 0.6201	13.8005 kg/m3
273.1 K, 411.8 kPa, x1 = 0.5401	15.1107 kg/m3
273.11 K, 105.09 kPa, x1 = 0.5401	3.5743 kg/m3
273.11 K, 121.2 kPa, x1 = 0.6201	4.3969 kg/m3
273.11 K, 251.59 kPa, x1 = 0.5401	8.853 kg/m3
273.11 K, 262.93 kPa, x1 = 0.7989	11.2212 kg/m3
273.11 K, 323.14 kPa, x1 = 0.5401	11.5758 kg/m3
273.12 K, 100.04 kPa, x1 = 0.7989	4.0831 kg/m3
273.12 K, 122.4 kPa, x1 = 0.2391	3.2081 kg/m3
273.12 K, 206.06 kPa, x1 = 0.6201	7.6287 kg/m3
273.12 K, 451.8 kPa, x1 = 0.2391	12.8024 kg/m3
273.13 K, 144.28 kPa, x1 = 0.7989	5.9572 kg/m3
273.13 K, 204.71 kPa, x1 = 0.2391	5.4646 kg/m3
273.13 K, 216.26 kPa, x1 = 0.7989	9.1063 kg/m3
273.13 K, 288.63 kPa, x1 = 0.2391	7.853 kg/m3
273.13 K, 319.28 kPa, x1 = 0.7989	13.8595 kg/m3
273.13 K, 364.79 kPa, x1 = 0.2391	10.1086 kg/m3
278.12 K, 123.52 kPa, x1 = 0.6201	4.396 kg/m3
278.13 K, 236.83 kPa, x1 = 0.6201	8.6438 kg/m3
278.14 K, 337.13 kPa, x1 = 0.6201	12.6083 kg/m3
278.14 K, 433.01 kPa, x1 = 0.6201	16.603 kg/m3
278.15 K, 103.41 kPa, x1 = 0.7989	4.1428 kg/m3
278.15 K, 194.41 kPa, x1 = 0.5401	6.606 kg/m3
278.15 K, 286.8 kPa, x1 = 0.7989	12.0403 kg/m3
278.15 K, 289.3 kPa, x1 = 0.5401	10.0435 kg/m3
278.15 K, 381.08 kPa, x1 = 0.7989	16.4363 kg/m3 and 16.4338 kg/m3
278.15 K, 419.02 kPa, x1 = 0.5401	15.0163 kg/m3
278.15 K, 504.76 kPa, x1 = 0.5401	18.5053 kg/m3
278.16 K, 115.44 kPa, x1 = 0.5401	3.8575 kg/m3
278.16 K, 152.51 kPa, x1 = 0.7989	6.1813 kg/m3
278.16 K, 230.77 kPa, x1 = 0.7989	9.5443 kg/m3
278.19 K, 442.42 kPa, x1 = 0.2391	12.1807 kg/m3
278.2 K, 102.16 kPa, x1 = 0.2391	2.6113 kg/m3
278.2 K, 233.61 kPa, x1 = 0.2391	6.1346 kg/m3
278.2 K, 514.55 kPa, x1 = 0.2391	14.4261 kg/m3
278.21 K, 366.56 kPa, x1 = 0.2391	9.9124 kg/m3
283.13 K, 211.19 kPa, x1 = 0.7822	8.4187 kg/m3
283.13 K, 329.43 kPa, x1 = 0.7822	13.5211 kg/m3
283.13 K, 459.52 kPa, x1 = 0.7822	19.5449 kg/m3
283.14 K, 311.18 kPa, x1 = 0.5401	10.6211 kg/m3
283.14 K, 501.49 kPa, x1 = 0.5401	17.8976 kg/m3
283.15 K, 101.13 kPa, x1 = 0.5401	3.3055 kg/m3
283.15 K, 102.6 kPa, x1 = 0.7822	3.9912 kg/m3
283.15 K, 120.94 kPa, x1 = 0.6201	4.2161 kg/m3
283.15 K, 198.01 kPa, x1 = 0.6201	7.0141 kg/m3
283.15 K, 210.93 kPa, x1 = 0.5401	7.0468 kg/m3
283.15 K, 416.97 kPa, x1 = 0.5401	14.5789 kg/m3
283.15 K, 602.24 kPa, x1 = 0.5401	22.0672 kg/m3
283.16 K, 415.7 kPa, x1 = 0.6201	15.476 kg/m3
283.16 K, 514.53 kPa, x1 = 0.6201	19.6465 kg/m3
283.17 K, 114.18 kPa, x1 = 0.2391	2.8713 kg/m3
283.17 K, 457.55 kPa, x1 = 0.2391	12.3388 kg/m3
283.17 K, 636.31 kPa, x1 = 0.2391	17.9209 kg/m3
283.18 K, 185.02 kPa, x1 = 0.2391	4.7134 kg/m3
283.18 K, 298.86 kPa, x1 = 0.2391	7.7872 kg/m3
283.18 K, 383.01 kPa, x1 = 0.2391	10.158 kg/m3
288.1 K, 100.89 kPa, x1 = 0.7822	3.85 kg/m3
288.12 K, 214.43 kPa, x1 = 0.7822	8.3795 kg/m3
288.12 K, 325.43 kPa, x1 = 0.7822	13.0428 kg/m3
288.12 K, 552.55 kPa, x1 = 0.7822	23.4956 kg/m3
288.12 K, 552.56 kPa, x1 = 0.7822	23.4963 kg/m3
288.12 K, 709.34 kPa, x1 = 0.5401	26.0161 kg/m3
288.13 K, 102.08 kPa, x1 = 0.5401	3.2763 kg/m3
288.13 K, 317.7 kPa, x1 = 0.5401	10.6307 kg/m3
288.13 K, 424.11 kPa, x1 = 0.5401	14.5146 kg/m3
288.13 K, 446.77 kPa, x1 = 0.6201	16.3715 kg/m3
288.13 K, 448.02 kPa, x1 = 0.7822	18.5148 kg/m3
288.13 K, 514.46 kPa, x1 = 0.5401	17.9692 kg/m3
288.13 K, 613.19 kPa, x1 = 0.5401	21.9339 kg/m3
288.14 K, 209.2 kPa, x1 = 0.5401	6.8504 kg/m3
288.14 K, 232.81 kPa, x1 = 0.6201	8.1461 kg/m3
288.14 K, 332.05 kPa, x1 = 0.6201	11.8593 kg/m3
288.15 K, 122.39 kPa, x1 = 0.6201	4.191 kg/m3
288.15 K, 553.06 kPa, x1 = 0.6201	20.7897 kg/m3
288.43 K, 753.42 kPa, x1 = 0.2391	21.238 kg/m3
288.45 K, 459.95 kPa, x1 = 0.2391	12.1079 kg/m3
288.45 K, 680.21 kPa, x1 = 0.2391	18.823 kg/m3
288.46 K, 121.21 kPa, x1 = 0.2391	2.9907 kg/m3
288.46 K, 302.44 kPa, x1 = 0.2391	7.7138 kg/m3
288.46 K, 384.07 kPa, x1 = 0.2391	9.9536 kg/m3
288.46 K, 571.46 kPa, x1 = 0.2391	15.4131 kg/m3
288.47 K, 209.6 kPa, x1 = 0.2391	5.253 kg/m3
293.14 K, 105.81 kPa, x1 = 0.7822	3.9639 kg/m3
293.15 K, 425.23 kPa, x1 = 0.7822	17.0517 kg/m3
293.15 K, 454.02 kPa, x1 = 0.5401	15.2811 kg/m3
293.15 K, 540.93 kPa, x1 = 0.7822	22.3179 kg/m3
293.15 K, 558.53 kPa, x1 = 0.5401	19.2207 kg/m3
293.15 K, 637.77 kPa, x1 = 0.7822	27.0005 kg/m3
293.15 K, 758.84 kPa, x1 = 0.5401	27.3827 kg/m3
293.15 K, 856.96 kPa, x1 = 0.5401	31.7378 kg/m3
293.16 K, 103.22 kPa, x1 = 0.5401	3.2534 kg/m3
293.16 K, 213.45 kPa, x1 = 0.7822	8.1673 kg/m3
293.16 K, 216.96 kPa, x1 = 0.5401	6.9744 kg/m3
293.16 K, 311.55 kPa, x1 = 0.7822	12.1753 kg/m3
293.16 K, 328.59 kPa, x1 = 0.5401	10.787 kg/m3
293.16 K, 662.93 kPa, x1 = 0.5401	23.3629 kg/m3
293.17 K, 427.29 kPa, x1 = 0.6201	15.2346 kg/m3
293.17 K, 611.78 kPa, x1 = 0.6201	22.7331 kg/m3
293.18 K, 124.6 kPa, x1 = 0.6201	4.1917 kg/m3
293.18 K, 229.76 kPa, x1 = 0.6201	7.8762 kg/m3
293.18 K, 328.76 kPa, x1 = 0.6201	11.4874 kg/m3
293.18 K, 525.37 kPa, x1 = 0.6201	19.1338 kg/m3
293.19 K, 728.09 kPa, x1 = 0.6201	27.8461 kg/m3
